Results on 53 molecules are retold here after ChEMBL document CHEMBL1139995, “SAR of the arylpiperazine moiety of obeline somatostatin sst1 receptor antagonists” (Bioorg Med Chem Lett, 2007).

The target in series [1] is Somatostatin receptor type 1 (Rattus norvegicus, UniProt P28646). Put plainly: Displacement of [125I]SRIF14 from rat sst1 receptor from rat brain cortex membrane. (In general: In a radioligand displacement assay an active substance lowers the binding of a labelled ligand.)
The target of series [2] is Somatostatin receptor type 2 (Rattus norvegicus, UniProt P30680). Description: Displacement of [125I]SRIF14 from rat sst2 receptor from rat brain cortex membrane.
Sequence of Somatostatin receptor type 2 (P30680 whole entry): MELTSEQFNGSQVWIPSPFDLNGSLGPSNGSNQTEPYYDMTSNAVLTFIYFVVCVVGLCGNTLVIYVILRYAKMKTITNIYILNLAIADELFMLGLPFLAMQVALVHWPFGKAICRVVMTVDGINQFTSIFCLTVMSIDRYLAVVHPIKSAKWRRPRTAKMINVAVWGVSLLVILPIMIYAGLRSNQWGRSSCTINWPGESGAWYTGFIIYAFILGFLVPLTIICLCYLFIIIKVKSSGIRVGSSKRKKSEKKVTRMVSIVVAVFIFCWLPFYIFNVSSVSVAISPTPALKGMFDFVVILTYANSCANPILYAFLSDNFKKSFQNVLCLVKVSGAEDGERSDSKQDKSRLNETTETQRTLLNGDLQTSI
The species entered for the next series is Rattus norvegicus. Description: Selectivity for rat sst1 receptor over rat sst2 receptor.
Series [3] is described as follows: Ratio of drug level in brain to plasma in mouse at 10 mg/kg, po after 1 hr. It counts as ADME, organism-based. The arrangement: dose 10 mg/kg, route oral. To be noted: brain and plasma, read-out: BPR.

By Kd is commonly meant a measure of binding affinity in units of concentration. Higher therefore signals lower affinity.

Sequence of Somatostatin receptor type 1 (P28646 whole entry): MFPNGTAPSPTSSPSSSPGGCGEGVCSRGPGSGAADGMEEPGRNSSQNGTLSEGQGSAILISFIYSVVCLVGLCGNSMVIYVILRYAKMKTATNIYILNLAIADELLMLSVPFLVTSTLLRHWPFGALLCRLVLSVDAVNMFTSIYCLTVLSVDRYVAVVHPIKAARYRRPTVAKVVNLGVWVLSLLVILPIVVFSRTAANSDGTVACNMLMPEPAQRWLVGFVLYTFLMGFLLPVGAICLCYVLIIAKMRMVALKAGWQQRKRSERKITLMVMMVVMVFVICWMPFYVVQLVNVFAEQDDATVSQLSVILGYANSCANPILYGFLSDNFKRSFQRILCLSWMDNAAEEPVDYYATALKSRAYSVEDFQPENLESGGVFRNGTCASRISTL

`COc1cccc2c1C[C@H]1C[C@@H](C(=O)N3CCN(c4ccc(O)cc4)CC3)CN(C)[C@@H]1C2`: the Kd in series [1] was 631 nM; in series [2], 24500 nM.
Consider `COc1cccc2c1C[C@H]1C[C@@H](C(=O)N3CCN(c4cccc(OCc5ccccc5)n4)CC3)CN(C)[C@@H]1C2`, for which the results for the Kd in series [1] and in series [2] were 105 nM and 6610 nM, respectively.
In the same order, the values of `COc1cccc2c1C[C@H]1C[C@@H](C(=O)N3CCN(c4ccncc4)CC3)CN(C)[C@@H]1C2` are 1860 nM and 17800 nM.
In the same order, the values of `COc1cccc2c1C[C@H]1C[C@@H](C(=O)N3CCN(c4ccc5nccnc5n4)CC3)CN(C)[C@@H]1C2` are 5.75 nM and 14100 nM.
On to `COc1cccc2c1C[C@H]1C[C@@H](C(=O)N3CCCN(c4ccc([N+](=O)[O-])cc4)CC3)CN(C)[C@@H]1C2`, for which the Kd in series [1] is 263 nM; in series [2], 22400 nM.
In the same order, the values of `COc1cccc2c1C[C@H]1C[C@@H](C(=O)N3CCN(c4ccccc4[N+](=O)[O-])CC3)CN(C)[C@@H]1C2` are 1.29 nM and 11000 nM.
In the same order, the values of `COc1cccc2c1C[C@H]1C[C@@H](C(=O)N3CCN(c4ccc(C(C)=O)cc4)CC3)CN(C)[C@@H]1C2` are 151 nM and 8710 nM.
In the same order, the values of `COc1cccc2c1C[C@H]1C[C@@H](C(=O)N3CCN(c4ccc(C(F)(F)F)cc4)CC3)CN(C)[C@@H]1C2` are 275 nM and 5130 nM.
With `COc1cccc2c1C[C@H]1C[C@@H](C(=O)N3CC=C(c4ncccn4)CC3)CN(C)[C@@H]1C2`, the Kd was 490 nM in series [1] and 2400 nM in series [2].
For `COc1cccc2c1C[C@H]1C[C@@H](C(=O)N3CCN(c4ccc(C#N)cc4)CC3)CN(C)[C@@H]1C2`, the Kd in series [1] is 8.13 nM; in series [2] it was 10000 nM.
On to `COc1cccc2c1C[C@H]1C[C@@H](C(=O)N3CCN(c4cc5ccccc5cn4)CC3)CN(C)[C@@H]1C2`, for which the dissociation constant (Kd) was 288 nM in series [1] and 5500 nM in series [2].
As for `COc1cccc2c1C[C@H]1C[C@@H](C(=O)N3CCN(c4ccc(S(N)(=O)=O)cc4)CC3)CN(C)[C@@H]1C2`, the dissociation constant (Kd) in series [1] was 589 nM; in series [2], 9120 nM.
For `COc1cccc2c1C[C@H]1C[C@@H](C(=O)N3CCN(c4ccc(C(F)(F)F)cc4[N+](=O)[O-])CC3)CN(C)[C@@H]1C2` the same measures were 110 nM and 4900 nM.
`CCN(CC)C(=O)c1ccc(N2CCN(C(=O)[C@@H]3C[C@@H]4Cc5c(cccc5OC)C[C@H]4N(C)C3)CC2)cc1`: the results for the Kd in series [1] and in series [2] were 1700 nM and 20000 nM, respectively.
In the same order, the values of `COc1cccc2c1C[C@H]1C[C@@H](C(=O)N3CCN(c4ccc5nccn5n4)CC3)CN(C)[C@@H]1C2` are 87.1 nM and 20900 nM.
For `COc1cccc2c1C[C@H]1C[C@@H](C(=O)N3CCN(c4ccc(C(F)(F)F)cn4)CC3)CN(C)[C@@H]1C2` the same measures were 105 nM and 20000 nM.
In the case of `COc1cccc2c1C[C@H]1C[C@@H](C(=O)N3CCN(c4ccc5nsnc5n4)CC3)CN(C)[C@@H]1C2`, the results for the equilibrium dissociation constant (Kd) in series [1] and in series [2] were 1.23 nM and 5750 nM, respectively. Moreover, the Selectivity ratio in the series listed under Rattus norvegicus was more than 4600. In addition, the Kp at 1 h in series [3] worked out at 1.8.
Regarding `COc1cccc2c1C[C@H]1C[C@@H](C(=O)N3CCN(c4cccc([N+](=O)[O-])c4)CC3)CN(C)[C@@H]1C2`, the Kd in series [1] was 1.32 nM; in series [2] it was 6760 nM.
For the molecule `COc1cccc2c1C[C@H]1C[C@@H](C(=O)N3CCN(c4cccc(F)c4C#N)CC3)CN(C)[C@@H]1C2`, the Kd in series [1] was 2.82 nM; in series [2], 16600 nM.
On to `COc1cccc2c1C[C@H]1C[C@@H](C(=O)N3CCN(c4ccc5nsnc5c4)CC3)CN(C)[C@@H]1C2`, for which the figures for the dissociation constant (Kd) in series [1] and in series [2] were 10.7 nM and 4270 nM, respectively. The Kp at 1 h in series [3] was 4.8.
On to `COc1cccc2c1C[C@H]1C[C@@H](C(=O)N3CCN(c4ccc(S(C)(=O)=O)cc4)CC3)CN(C)[C@@H]1C2`, for which the figures for the Kd in series [1] and in series [2] were 631 nM and 8710 nM, respectively.
For `COc1cccc2c1C[C@H]1C[C@@H](C(=O)N3CCN(c4cccc5ccc(C#N)cc45)CC3)CN(C)[C@@H]1C2` the same measures were 8.71 nM and 5250 nM.
In the same order, the values of `COc1cccc2c1C[C@H]1C[C@@H](C(=O)N3CC=C(c4ccccn4)CC3)CN(C)[C@@H]1C2` are 30.2 nM and 2340 nM.
For `COc1cccc2c1C[C@H]1C[C@@H](C(=O)N3CCC(n4c(=O)[nH]c5ccccc54)CC3)CN(C)[C@@H]1C2` the same measures were 490 nM and 2040 nM.
For the molecule `COc1cccc2c1C[C@H]1C[C@@H](C(=O)N3CCN(c4cccc(F)c4)CC3)CN(C)[C@@H]1C2`, the Kd in series [1] was 3.31 nM; in series [2] it was 21400 nM.
Turning to `COc1cccc2c1C[C@H]1C[C@@H](C(=O)N3CCN(c4cccc(=O)n4C)CC3)CN(C)[C@@H]1C2`, the Kd is 1.82 nM in series [1] and 11000 nM in series [2].
For `COc1cccc2c1C[C@H]1C[C@@H](C(=O)N3CCN(c4cccc5nonc45)CC3)CN(C)[C@@H]1C2` the same measures were 3.63 nM and 3630 nM.
In the same order, the values of `COc1cccc2c1C[C@H]1C[C@@H](C(=O)N3CCN(c4ccc(F)cc4)CC3)CN(C)[C@@H]1C2` are 3.39 nM and 26300 nM.
In the same order, the values of `COc1cccc2c1C[C@H]1C[C@@H](C(=O)N3CCN(c4ccc5nonc5c4)CC3)CN(C)[C@@H]1C2` are 1.7 nM and 3470 nM.
`COc1cccc2c1C[C@H]1C[C@@H](C(=O)N3CCN(c4ccc(C#N)cn4)CC3)CN(C)[C@@H]1C2`: the dissociation constant (Kd) in series [1] was 3.55 nM; in series [2], 10200 nM.
For the molecule `COc1cccc2c1C[C@H]1C[C@@H](C(=O)N3CCN(Cc4ccccc4)CC3)CN(C)[C@@H]1C2`, the equilibrium dissociation constant (Kd) in series [1] was 457 nM; in series [2] it was 9120 nM.
Take `COc1cccc2c1C[C@H]1C[C@@H](C(=O)N3CCN(c4ncccc4OS(=O)(=O)C(F)(F)F)CC3)CN(C)[C@@H]1C2`: the Kd in series [1] is 562 nM; in series [2], 10500 nM.
For `COc1cccc2c1C[C@H]1C[C@@H](C(=O)N3CCN(c4ccc5ccccc5n4)CC3)CN(C)[C@@H]1C2` the same measures were 27.5 nM and 2090 nM.
On to `COc1cccc2c1C[C@H]1C[C@@H](C(=O)N3CCN(c4cccc(C(F)(F)F)c4)CC3)CN(C)[C@@H]1C2`, for which the dissociation constant Kd in series [1] was 23.4 nM; in series [2] it was 13200 nM.
On to `O=[As][As+](=O)[O-]` (centres undefined) [ARSENIC TRIOXIDE], for which the dissociation constant Kd is 52.5 nM in series [1] and 25100 nM in series [2].
Turning to `COc1cccc2c1C[C@H]1C[C@@H](C(=O)N3CCN(c4cc5nccnc5cn4)CC3)CN(C)[C@@H]1C2`, the equilibrium dissociation constant (Kd) is 355 nM in series [1] and 7080 nM in series [2].
With `COc1cccc2c1C[C@H]1C[C@@H](C(=O)N3CCN(c4cccc5nsnc45)CC3)CN(C)[C@@H]1C2`, the Kd in series [1] was 2.75 nM; in series [2], 10000 nM.
Take `COc1cccc2c1C[C@H]1C[C@@H](C(=O)N3CCN(c4cc(C)nc5ccccc45)CC3)CN(C)[C@@H]1C2`: the Kd in series [1] is 692 nM; in series [2], 5250 nM.
In the same order, the values of `COc1cccc2c1C[C@H]1C[C@@H](C(=O)N3CCN(c4ccc([N+](=O)[O-])cc4C#N)CC3)CN(C)[C@@H]1C2` are 3.24 nM and 4370 nM.
For `COc1cccc2c1C[C@H]1C[C@@H](C(=O)N3CC=C(c4ccc(Cl)cc4)CC3)CN(C)[C@@H]1C2` the same measures were 81.3 nM and 2510 nM.
In the same order, the values of `COc1cccc2c1C[C@H]1C[C@@H](C(=O)N3CCN(c4cccc5ccccc45)CC3)CN(C)[C@@H]1C2` are 87.1 nM and 5500 nM.
With `COc1cccc2c1C[C@H]1C[C@@H](C(=O)N3CCN(c4ccc(C(N)=O)cc4)CC3)CN(C)[C@@H]1C2`, the equilibrium dissociation constant (Kd) was 1510 nM in series [1] and 16600 nM in series [2].
For `COc1cccc2c1C[C@H]1C[C@@H](C(=O)N3CCN(c4ccccn4)CC3)CN(C)[C@@H]1C2`, the figures for the dissociation constant Kd in series [1] and in series [2] were 17.4 nM and 10200 nM, respectively.
For `COc1cccc2c1C[C@H]1C[C@@H](C(=O)N3CCCN(c4ccccn4)CC3)CN(C)[C@@H]1C2` the same measures were 209 nM and 34700 nM.
For `COc1cccc2c1C[C@H]1C[C@@H](C(=O)N3CCN(c4ccc([N+](=O)[O-])cc4S(C)(=O)=O)CC3)CN(C)[C@@H]1C2` the same measures were 1.74 nM and 5250 nM.
In the case of `COc1cccc2c1C[C@H]1C[C@@H](C(=O)N3CCN(c4ccc(C(=O)O)cc4)CC3)CN(C)[C@@H]1C2`, the Kd is 81300 nM in series [1] and 251000 nM in series [2].
In the same order, the values of `COC(=O)c1ccc(N2CCN(C(=O)[C@@H]3C[C@@H]4Cc5c(cccc5OC)C[C@H]4N(C)C3)CC2)cc1` are 162 nM and 14800 nM.
For `COc1cccc2c1C[C@H]1C[C@@H](C(=O)N3CCN(c4ccccc4F)CC3)CN(C)[C@@H]1C2` the same measures were 17.8 nM and 18600 nM.
In the same order, the values of `COc1cccc2c1C[C@H]1C[C@@H](C(=O)N3CCN(c4cccc(=O)[nH]4)CC3)CN(C)[C@@H]1C2` are 7.59 nM and 11700 nM.
With `COc1cccc2c1C[C@H]1C[C@@H](C(=O)N3CCN(c4ccccc4C#N)CC3)CN(C)[C@@H]1C2`, the dissociation constant (Kd) was 2 nM in series [1] and 7410 nM in series [2].
Turning to `COc1cccc2c1C[C@H]1C[C@@H](C(=O)N3CCc4c([nH]c5ccccc45)C3)CN(C)[C@@H]1C2`, the results for the Kd in series [1] and in series [2] were 70.8 nM and 6170 nM, respectively.
On to `COc1cccc2c1C[C@H]1C[C@@H](C(=O)N3CCN(c4ncccn4)CC3)CN(C)[C@@H]1C2`, for which the Kd is 468 nM in series [1] and 27500 nM in series [2].
Take `COc1cccc2c1C[C@H]1C[C@@H](C(=O)N3CCNCC3)CN(C)[C@@H]1C2`: the Kd in series [1] is 10500 nM; in series [2] it was 43700 nM.
